System: solid malignant tumors
Assay: GEN1046 Phase I dose escalation (NCT03917381), response by RECIST v1.1
Assay type: in vivo, human
Details: for CR (Complete Response), patients / Confirmed CR (Complete Response), patients / Confirmed Disease Control (PR + PR + SD) Rate, % / Confirmed Disease Control (PR + PR + SD) Rate, patients / Confirmed NE (Not Evaluable), % of patients / Confirmed NE (Not Evaluable), patients / Confirmed Objective Response (CR + PR) Rate, patients / Confirmed PD (Progressive Disease), % of patients / Confirmed PD (Progressive Disease), patients / Confirmed PR (Partial Response), patients / Confirmed SD (Stable Disease), % of patients / Confirmed SD (Stable Disease), patients / Disease Control (PR + PR + SD) Rate, % / Disease Control (PR + PR + SD) Rate, patients / NE (Not Evaluable), % of patients / NE (Not Evaluable), patients / Objective Response (CR + PR) Rate, patients / PD (Progressive Disease), % of patients / PD (Progressive Disease), patients / PR (Partial Response), patients / Confirmed Objective Response (CR + PR) Rate, % / Confirmed PR (Partial Response), % of patients / Objective Response (CR + PR) Rate, % / PR (Partial Response), % of patients: Oct. 12, 2020; for BOR Complete Response, (percent) / BOR Complete Response, patients / BOR Partial Response, (percent) / BOR Partial Response, patients / BOR Progressive Disease, (percent) / BOR Progressive Disease, patients / BOR Stable Disease, (percent) / BOR Stable Disease, patients: 3 Feb. 2020
From the text: The resistance to, failure to respond to and/or relapse from treatment with a binding agent of the invention and/or other therapeutic agent(s) may be determined according to the Response Evaluation Criteria In Solid Tumors; version 1.1 (RECIST Criteria v1.1).
The “best overall response” is the best response recorded from the start of the treatment until disease progression/recurrence (the smallest measurements recorded since the treatment started will be used as the reference for PD). Subjects with CR or PR are considered to be objective response. Subjects with CR, PR or SD are considered to be in disease control. Subjects with NE are counted as non-responders. […]
Clinical trial on GCT1046-01 (ClinicalTrials.gov Identifier: NCT03917381) was designed as a two-part trial, including an ongoing dose escalation part and a planned expansion part.
The trial consists of 2 parts; a First-in-Human (FIH) dose escalation (Phase I) and an expansion (Phase 11a).
For dose escalation, subject was required to be a man or […] and was required to have measurable disease according to RECIST 1.1.

## GEN1046: PD-L1×4-1BB bispecific antibody: PD-L1-547-FEAL combined with CD137-009-HC7LC2-FEAR (SEQ ID NOs: 1, 5, 21, 19; 8, 12, 22, 20)
25 mg (N 4)
  CR (Complete Response), patients: 0
  Confirmed CR (Complete Response), patients: 0
  Confirmed Disease Control (PR + PR + SD) Rate, %: 25.0%
  Confirmed Disease Control (PR + PR + SD) Rate, patients: 1
  Confirmed NE (Not Evaluable), % of patients: 25.0%
  Confirmed NE (Not Evaluable), patients: 1
  Confirmed Objective Response (CR + PR) Rate, patients: 0
  Confirmed PD (Progressive Disease), % of patients: 50.0%
  Confirmed PD (Progressive Disease), patients: 2
  Confirmed PR (Partial Response), patients: 0
  Confirmed SD (Stable Disease), % of patients: 25.0%
  Confirmed SD (Stable Disease), patients: 1
  Disease Control (PR + PR + SD) Rate, %: 25.0%
  Disease Control (PR + PR + SD) Rate, patients: 1
  NE (Not Evaluable), % of patients: 25.0%
  NE (Not Evaluable), patients: 1
  Objective Response (CR + PR) Rate, patients: 0
  PD (Progressive Disease), % of patients: 50.0%
  PD (Progressive Disease), patients: 2
  PR (Partial Response), patients: 0
25 mg (n = 2)
  BOR Complete Response, (percent): (0)
  BOR Complete Response, patients: 0
  BOR Partial Response, (percent): (0)
  BOR Partial Response, patients: 0
  BOR Progressive Disease, (percent): (100)
  BOR Progressive Disease, patients: 2
  BOR Stable Disease, (percent): (0)
  BOR Stable Disease, patients: 0
50 mg (N 5)
  CR (Complete Response), patients: 0
  Confirmed CR (Complete Response), patients: 0
  Confirmed Disease Control (PR + PR + SD) Rate, %: 60.0%
  Confirmed Disease Control (PR + PR + SD) Rate, patients: 3
  Confirmed NE (Not Evaluable), patients: 0
  Confirmed Objective Response (CR + PR) Rate, patients: 0
  Confirmed PD (Progressive Disease), % of patients: 40.0%
  Confirmed PD (Progressive Disease), patients: 2
  Confirmed PR (Partial Response), patients: 0
  Confirmed SD (Stable Disease), % of patients: 60.0%
  Confirmed SD (Stable Disease), patients: 3
  Disease Control (PR + PR + SD) Rate, %: 60.0%
  Disease Control (PR + PR + SD) Rate, patients: 3
  NE (Not Evaluable), patients: 0
  Objective Response (CR + PR) Rate, patients: 0
  PD (Progressive Disease), % of patients: 40.0%
  PD (Progressive Disease), patients: 2
  PR (Partial Response), patients: 0
50 mg (n = 5)
  BOR Complete Response, (percent): (0)
  BOR Complete Response, patients: 0
  BOR Partial Response, (percent): (0)
  BOR Partial Response, patients: 0
  BOR Progressive Disease, (percent): (40)
  BOR Progressive Disease, patients: 2
  BOR Stable Disease, (percent): (60)
  BOR Stable Disease, patients: 3
80 mg (N 9)
  CR (Complete Response), patients: 0
  Confirmed CR (Complete Response), patients: 0
  Confirmed Disease Control (PR + PR + SD) Rate, %: 88.9%
  Confirmed Disease Control (PR + PR + SD) Rate, patients: 8
  Confirmed NE (Not Evaluable), patients: 0
  Confirmed Objective Response (CR + PR) Rate, %: 11.1%
  Confirmed Objective Response (CR + PR) Rate, patients: 1
  Confirmed PD (Progressive Disease), % of patients: 11.1%
  Confirmed PD (Progressive Disease), patients: 1
  Confirmed PR (Partial Response), % of patients: 11.1%
  Confirmed PR (Partial Response), patients: 1
  Confirmed SD (Stable Disease), % of patients: 77.8%
  Confirmed SD (Stable Disease), patients: 7
  Disease Control (PR + PR + SD) Rate, %: 88.9%
  Disease Control (PR + PR + SD) Rate, patients: 8
  NE (Not Evaluable), patients: 0
  Objective Response (CR + PR) Rate, %: 22.2%
  Objective Response (CR + PR) Rate, patients: 2
  PD (Progressive Disease), % of patients: 11.1%
  PD (Progressive Disease), patients: 1
  PR (Partial Response), % of patients: 22.2%
  PR (Partial Response), patients: 2
80 mg (n = 8)
  BOR Complete Response, (percent): (0)
  BOR Complete Response, patients: 0
  BOR Progressive Disease, (percent): (12.5)
  BOR Progressive Disease, patients: 1
  BOR Stable Disease, (percent): (62.5)
  BOR Stable Disease, patients: 5
80 mg (n = 8), uPR
  BOR Partial Response, (percent): (25)
  BOR Partial Response, patients: 2^1
100 mg (N 6)
  CR (Complete Response), patients: 0
  Confirmed CR (Complete Response), patients: 0
  Confirmed Disease Control (PR + PR + SD) Rate, %: 66.7%
  Confirmed Disease Control (PR + PR + SD) Rate, patients: 4
  Confirmed NE (Not Evaluable), % of patients: 33.3%
  Confirmed NE (Not Evaluable), patients: 2
  Confirmed Objective Response (CR + PR) Rate, %: 16.7%
  Confirmed Objective Response (CR + PR) Rate, patients: 1
  Confirmed PD (Progressive Disease), patients: 0
  Confirmed PR (Partial Response), % of patients: 16.7%
  Confirmed PR (Partial Response), patients: 1
  Confirmed SD (Stable Disease), % of patients: 50.0%
  Confirmed SD (Stable Disease), patients: 3
  Disease Control (PR + PR + SD) Rate, %: 66.7%
  Disease Control (PR + PR + SD) Rate, patients: 4
  NE (Not Evaluable), % of patients: 33.3%
  NE (Not Evaluable), patients: 2
  Objective Response (CR + PR) Rate, %: 16.7%
  Objective Response (CR + PR) Rate, patients: 1
  PD (Progressive Disease), patients: 0
  PR (Partial Response), % of patients: 16.7%
  PR (Partial Response), patients: 1
140 mg (N 6)
  CR (Complete Response), patients: 0
  Confirmed CR (Complete Response), patients: 0
  Confirmed Disease Control (PR + PR + SD) Rate, %: 50.0%
  Confirmed Disease Control (PR + PR + SD) Rate, patients: 3
  Confirmed NE (Not Evaluable), % of patients: 16.7%
  Confirmed NE (Not Evaluable), patients: 1
  Confirmed Objective Response (CR + PR) Rate, patients: 0
  Confirmed PD (Progressive Disease), % of patients: 33.3%
  Confirmed PD (Progressive Disease), patients: 2
  Confirmed PR (Partial Response), patients: 0
  Confirmed SD (Stable Disease), % of patients: 50.0%
  Confirmed SD (Stable Disease), patients: 3
  Disease Control (PR + PR + SD) Rate, %: 50.0%
  Disease Control (PR + PR + SD) Rate, patients: 3
  NE (Not Evaluable), % of patients: 16.7%
  NE (Not Evaluable), patients: 1
  Objective Response (CR + PR) Rate, patients: 0
  PD (Progressive Disease), % of patients: 33.3%
  PD (Progressive Disease), patients: 2
  PR (Partial Response), patients: 0
140 mg (n = 1)
  BOR Complete Response, (percent): (0)
  BOR Complete Response, patients: 0
  BOR Partial Response, (percent): (0)
  BOR Partial Response, patients: 0
  BOR Progressive Disease, (percent): (100)
  BOR Progressive Disease, patients: 1
